“And” between values parts separate entries of the source, which are not always exact repeats. Equal entries are not always repeated. Inconclusive results and toxic doses are left out. How the source made its calls: active means survival T/C of 150% or more; inactive means T/C below 125% in these data.
Test system: mice, LPC-1 plasma cell tumor ip, median survival T/C
Assay: NCI In Vivo Anticancer Drug Screen. Data for tumor model Lieberman Plasma Cell No. 1 (LPC-1) (intraperitoneal) in unknown mice
Conditions: endpoint: median survival time, higher = longer survival
Protocol: The antitumor activity of compounds was measured in mice bearing transplantable tumors. Survival or tumor size were measured and the results are expressed as the measurement made in the treated group (T) divided by the measurement made in the vehicle treated control group (C). The tumor model used in this assay is Lieberman Plasma Cell No. 1 (LPC-1) (intraperitoneal) in unknown mice

[1] = dose: 2.0 mg/kg/injection, schedule: Q01DX028 (sc), vehicle: saline
[2] = dose: 4.0 mg/kg/injection, schedule: Q01DX028 (sc), vehicle: saline
[3] = dose: 1.8 mg/kg/injection, schedule: Q01DX028 (sc), vehicle: saline
[4] = dose: 3.0 mg/kg/injection, schedule: Q01DX028 (sc), vehicle: saline
[5] = dose: 5.0 mg/kg/injection, schedule: Q01DX028 (sc), vehicle: saline
[6] = dose: 14.0 mg/kg/injection, schedule: Q01DX028 (sc), vehicle: saline

Measured: T/C

O=c1[nH]cc(F)c(=O)[nH]1
inactive: [1] 122 % of control | dose: 3.0 mg/kg/injection, schedule: Q01DX024 (sc), vehicle: saline 109 % of control | dose: 5.8 mg/kg/injection, schedule: Q01DX001 (sc), vehicle: saline 105 % of control | dose: 5.8 mg/kg/injection, schedule: Q01DX002 (sc), vehicle: saline 100 % of control | dose: 5.8 mg/kg/injection, schedule: Q01DX003 (sc), vehicle: saline 112 % of control | dose: 5.8 mg/kg/injection, schedule: Q01DX004 (sc), vehicle: saline 110 % of control | dose: 6.0 mg/kg/injection, schedule: Q01DX024 (sc), vehicle: saline 121 % of control | dose: 6.0 mg/kg/injection, schedule: Q## X008 (sc), vehicle: saline 104 % of control | dose: 6.0 mg/kg/injection, schedule: Q## X012 (sc), vehicle: saline 114 % of control | dose: 9.6 mg/kg/injection, schedule: Q01DX001 (sc), vehicle: saline 110 % of control | dose: 9.6 mg/kg/injection, schedule: Q01DX002 (sc), vehicle: saline 112 % of control | dose: 9.6 mg/kg/injection, schedule: Q01DX003 (sc), vehicle: saline 120 % of control | dose: 9.6 mg/kg/injection, schedule: Q01DX004 (sc), vehicle: saline 112 % of control | dose: 12.0 mg/kg/injection, schedule: Q## X008 (sc), vehicle: saline 117 % of control | dose: 12.0 mg/kg/injection, schedule: Q## X012 (sc), vehicle: saline 117 % of control | dose: 16.0 mg/kg/injection, schedule: Q01DX001 (sc), vehicle: saline 115 % of control | dose: 16.0 mg/kg/injection, schedule: Q01DX002 (sc), vehicle: saline 117 % of control | dose: 26.7 mg/kg/injection, schedule: Q01DX001 (sc), vehicle: saline 120 % of control | dose: 26.7 mg/kg/injection, schedule: Q01DX002 (sc), vehicle: saline 122 % of control | dose: 32.0 mg/kg/injection, schedule: Q01DX028 (sc), vehicle: saline 93 % of control | dose: 44.5 mg/kg/injection, schedule: Q01DX003 (sc), vehicle: saline 107 % of control | dose: 44.5 mg/kg/injection, schedule: Q01DX004 (sc), vehicle: saline 120 % of control | dose: 48.0 mg/kg/injection, schedule: Q01DX024 (sc), vehicle: saline 102 % of control | dose: 96.0 mg/kg/injection, schedule: Q## X008 (sc), vehicle: saline 95 % of control | dose: 96.0 mg/kg/injection, schedule: Q## X012 (sc), vehicle: saline 90 % of control
active: [2] 155 % of control | dose: 8.0 mg/kg/injection, schedule: Q01DX028 (sc), vehicle: saline 251 % of control | dose: 12.0 mg/kg/injection, schedule: Q01DX024 (sc), vehicle: saline 214 % of control | dose: 16.0 mg/kg/injection, schedule: Q01DX028 (sc), vehicle: saline 155 % of control | dose: 24.0 mg/kg/injection, schedule: Q## X012 (sc), vehicle: saline 156 % of control | dose: 26.7 mg/kg/injection, schedule: Q01DX004 (sc), vehicle: saline 157 % of control

NC(Cc1c[nH]c2ccc(N(CCCl)CCCl)cc12)C(=O)O (stereo unspecified)
active: dose: 0.23 mg/kg/injection, schedule: Q01DX028 (sc), vehicle: acid diluted with saline 235 % of control | dose: 0.39 mg/kg/injection, schedule: Q01DX028 (sc), vehicle: acid diluted with saline 276 % of control | dose: 0.39 mg/kg/injection, schedule: Q01DX028 (sc), vehicle: other 285 % of control | dose: 0.65 mg/kg/injection, schedule: Q01DX028 (sc), vehicle: acid diluted with saline 230 % of control | dose: 0.65 mg/kg/injection, schedule: Q01DX028 (sc), vehicle: methylcellulose (MC) 164 % of control | dose: 0.65 mg/kg/injection, schedule: Q01DX028 (sc), vehicle: other 380 % of control | dose: 1.08 mg/kg/injection, schedule: Q01DX028 (sc), vehicle: other 157 % of control
inactive: dose: 1.08 mg/kg/injection, schedule: Q01DX028 (sc), vehicle: methylcellulose (MC) 119 % of control | dose: 1.8 mg/kg/injection, schedule: Q01DX028 (sc), vehicle: acid diluted with saline 107 % of control | dose: 1.8 mg/kg/injection, schedule: Q01DX028 (sc), vehicle: other 114 % of control | dose: 3.0 mg/kg/injection, schedule: Q01DX028 (sc), vehicle: acid diluted with saline 97 % of control | dose: 3.0 mg/kg/injection, schedule: Q01DX028 (sc), vehicle: other 102 % of control

C[C@]12C=CC(=O)C=C1CC[C@@H]1[C@@H]2C(=O)C[C@@]2(C)[C@H]1CC[C@]2(O)C(=O)CO
inactive: dose: 16.0 mg/kg/injection, schedule: Q01DX028 (sc), vehicle: water 86 % of control | dose: 32.0 mg/kg/injection, schedule: Q01DX028 (sc), vehicle: water 86 % of control | dose: 50.0 mg/kg/injection, schedule: Q01DX028 (sc), vehicle: water 105 % of control | dose: 128.0 mg/kg/injection, schedule: Q01DX028 (sc), vehicle: water 91 % of control | dose: 200.0 mg/kg/injection, schedule: Q01DX028 (sc), vehicle: water 92 % of control

O=C(O)c1[nH]c(=O)[nH]c(=O)c1F
active: [3] 180 % of control
inactive: [4] 123 % of control | [5] 119 % of control | dose: 8.4 mg/kg/injection, schedule: Q01DX028 (sc), vehicle: saline 97 % of control and 114 % of control | [6] 93 % of control and 104 % of control | dose: 23.0 mg/kg/injection, schedule: Q01DX028 (sc), vehicle: saline 95 % of control and 102 % of control | dose: 39.0 mg/kg/injection, schedule: Q01DX028 (sc), vehicle: saline 93 % of control | dose: 65.0 mg/kg/injection, schedule: Q01DX028 (sc), vehicle: saline 88 % of control

CCN(CC)c1ccc2cc3ccc(=[N+](CC)CC)cc-3oc2c1
inactive: dose: 1.0 mg/kg/injection, schedule: Q01DX028 (sc), vehicle: methylcellulose (MC) 97 % of control | dose: 2.0 mg/kg/injection, schedule: Q01DX028 (sc), vehicle: methylcellulose (MC) 93 % of control | dose: 4.0 mg/kg/injection, schedule: Q01DX028 (sc), vehicle: methylcellulose (MC) 89 % of control | dose: 8.0 mg/kg/injection, schedule: Q01DX028 (sc), vehicle: methylcellulose (MC) 87 % of control

NC(CSC(c1ccccc1)(c1ccccc1)c1ccccc1)C(=O)O (stereo unspecified)
inactive: dose: 7.5 mg/kg/injection, schedule: Q01DX028 (sc), vehicle: saline 102 % of control | dose: 15.0 mg/kg/injection, schedule: Q01DX028 (sc), vehicle: saline 105 % of control | dose: 60.0 mg/kg/injection, schedule: Q01DX028 (sc), vehicle: saline 105 % of control

CNNCc1ccc(C(=O)NC(N)=O)cc1
inactive: dose: 50.0 mg/kg/injection, schedule: Q01DX028 (sc), vehicle: saline 100 % of control | dose: 100.0 mg/kg/injection, schedule: Q01DX028 (sc), vehicle: saline 105 % of control | dose: 200.0 mg/kg/injection, schedule: Q01DX028 (sc), vehicle: saline 102 % of control

O=NN(CCCl)C(=O)NCCCl
active: dose: 2.4 mg/kg/injection, schedule: Q01DX028 (sc), vehicle: saline 157 % of control | [4] 157 % of control and 185 % of control | [5] 195 % of control and 202 % of control
inactive: dose: 0.65 mg/kg/injection, schedule: Q01DX028 (sc), vehicle: saline 109 % of control | dose: 1.08 mg/kg/injection, schedule: Q01DX028 (sc), vehicle: saline 107 % of control

CS(=O)(=O)OCCN(CCOS(C)(=O)=O)c1ccc(N=O)cc1
active: [3] 157 % of control
inactive: dose: 0.25 mg/kg/injection, schedule: Q01DX028 (sc), vehicle: saline 105 % of control | dose: 0.5 mg/kg/injection, schedule: Q01DX028 (sc), vehicle: saline 107 % of control | dose: 1.0 mg/kg/injection, schedule: Q01DX028 (sc), vehicle: saline 120 % of control | [1] 102 % of control and 115 % of control | dose: 2.7 mg/kg/injection, schedule: Q01DX028 (sc), vehicle: saline 121 % of control | [2] 94 % of control and 100 % of control | dose: 6.0 mg/kg/injection, schedule: Q01DX028 (sc), vehicle: saline 94 % of control

CS(=O)(=O)OCCN(CCOS(C)(=O)=O)c1ccc(C=O)cc1
active: [4] 160 % of control | [5] 166 % of control and 192 % of control | dose: 8.3 mg/kg/injection, schedule: Q01DX028 (sc), vehicle: saline 226 % of control | dose: 10.0 mg/kg/injection, schedule: Q01DX028 (sc), vehicle: saline 202 % of control | [6] 250 % of control | dose: 20.0 mg/kg/injection, schedule: Q01DX028 (sc), vehicle: saline 261 % of control
inactive: dose: 40.0 mg/kg/injection, schedule: Q01DX028 (sc), vehicle: saline 122 % of control

From PubChem BioAssay AID344 (DTP/NCI, 2004)
